Measured values taken from patent US20230172885A1, “THIOL-CONTAINING COMPOUNDS FOR USE IN TREATING CORONAVIRUS” (priority 2020, published 2023).
Entries after “also recorded” stand apart in the source; their conditions may differ. Like-named read-outs stand apart in the source and are kept apart here.

How the values were obtained:
[1] = tested on: VSV pseudotype bearing the SARS-2-S protein (VSV-S); format: cell-based, SARS-CoV-2
[2] = molecular target: T1, SARS-CoV-2 spike protein (SARS-2-S) binding to ACE2 (Severe acute respiratory syndrome coronavirus 2, UniProt P0DTC2)
T1 construct: Recombinantly expressed RBD of SARS-2-S was first immobilized to a surface

[3] = molecular target: T2, RBD^original (SARS-CoV-2 receptor binding domain) binding to ACE2 (Severe acute respiratory syndrome coronavirus 2, UniProt P0DTC2); details: for inhibition of binding of RBD^original to ACE2: RBD exposed to drug for 60 minutes, 0 to 20 mM; for binding of RBD^original to ACE2 at one and two hours post exposure and wash: drug at 5 mM for 1 hour, three washes
T2 construct: ACRO Biosystems); purchased ACRO Biosystems

[4] = cited from earlier work
[5] = tested on: SARS-2-S pseudovirus (rVSV-ΔG luciferase); format: cell-based; details: pseudovirus pre-incubated with 1.56-100 mM drug for 2 hours, 66-fold dilution
[6] = tested on: SARS CoV2 (isolate USA-WA1/2020); design: species or system Syrian hamsters (Mesocricetus auratus); details: hamster, in vivo
[7] = tested on: SARS-CoV-2, isolate USA-WA1/2020; format: cell-based
[8] = format: physicochemical; details: 11 mg/mL in 20 mM sodium citrate, pH 4.5, 38.5 mM NaCl; Aerogen Solo vibrating mesh nebulizer

CC(=O)N[C@@H](CS)C(=O)O [NAC, N-acetyl-L-cysteine]
cell entry inhibition of VSV-S, only 5 and 25 mM [1]: significant cell entry inhibition
inhibition of VSV-S cellular entry [1]: inhibited VSV-S cellular entry; also recorded: inhibited from entering
inhibition of binding of ACE2 to SARS-2-S [2]: inhibit binding

O=S(=O)([O-])CCS.[Na+] [MESNA, 2-mercaptoethane sulfonate, sodium salt]
antiviral efficacy in vitro compared with NAC (SARS-CoV-2): superior antiviral efficacy in vitro
inhibition of binding of RBD^original to ACE2 [3]: strong inhibitory effects
binding of RBD^original to ACE2 at one and two hours post exposure and wash [3]: binding inhibition was retained for two hours

O=C(O)C(S)C(S)C(=O)O (stereo not shown) [Dimercaptosuccinic acid]
pKa (thiol group) [4]: 8.9
pKa (thiol group) ([4]; dithiol drugs, second thiol): 10.8

CC(S)C(=O)NCC(=O)O (stereo not shown) [Tiopronin]
pKa (thiol group) [4]: 8.7

N[C@@H](CSCC(=O)O)C(=O)O [Carbocysteine]
pseudovirus cell entry, pseudovirus pre-treatment [5]: did not inhibit viral cell entry

NCCS [Cysteamine]
SARS-CoV2 viral titers (viral RNA, RT-qPCR) in lungs [6]: did not decrease; also recorded: does not decrease
interleukin-6 levels in lung lavage [6]: lower than control
lung weights normalized to terminal body weights [6]: lower than in control groups
lymphocytes in BAL fluid [6]: decreases
neutrophils in BAL fluid [6]: decreases
severity of SARS-CoV2 lung inflammation [6]: did decrease; also recorded: decreased; also recorded: has anti-inflammatory effects
total leukocyte counts in the bronchoalveolar lavage (BAL) fluid [6]: lower than control
potency among thiol drugs in the in vitro assays (SARS-CoV-2): most potent thiol drug
pKa (thiol group) [4]: 8.2
cytopathic effects (CPE) in virus-infected cells, virus exposed to drug prior to infection [7]: inhibit live virus infection; also recorded: significantly inhibited
pseudovirus cell entry, pseudovirus pre-treatment [5]: decrease the entry efficiency
inhibition of binding of RBD^original to ACE2 [3]: decreased binding; also recorded: strong inhibitory effects
binding of RBD^original to ACE2 at one and two hours post exposure and wash [3]: binding inhibition was retained for two hours

NCCCNCCS [WR-1065]
pKa (thiol group) [4]: 7.7 (WR-1065)
inhibition of binding of RBD^original to ACE2 [3]: strong inhibitory effects
binding of RBD^original to ACE2 at one and two hours post exposure and wash [3]: binding inhibition was retained for two hours

O[C@@H]1[C@@H](O)[C@@H](O[C@H]2O[C@H](CS)[C@@H](O)[C@H](O)[C@H]2O)O[C@H](CS)[C@H]1O [MUC-31, 6,6′-dithiotrehalose]
SARS-CoV2 viral titers (viral RNA, RT-qPCR) in lungs ([6]; 0.5 mg/kg): decreases; also recorded: significantly lower
interleukin-6 levels in lung lavage ([6]; 0.5 mg/kg): lower than control
lung weights normalized to terminal body weights ([6]; 0.5 mg/kg): lower than in control groups
macrophages in BAL fluid ([6]; 0.5 mg/kg): decreases
severity of SARS-CoV2 lung inflammation ([6]; 0.5 mg/kg): decreased; also recorded: limit SARS-COV-2-associated lung inflammation
total leukocyte counts in the bronchoalveolar lavage (BAL) fluid ([6]; 0.5 mg/kg): lower than control
average mass median aerodynamic diameter (MMAD) of the exposure atmosphere [8]: 2.60 µm
cytopathic effects (CPE) in virus-infected cells, virus exposed to drug prior to infection [7]: inhibit live virus infection; also recorded: significantly inhibited
effectiveness for inhibiting viral entry compared with NAC [1]: more effective than NAC
inhibition of VSV-S cellular entry [1]: inhibited VSV-S cellular entry; also recorded: inhibited from entering
inhibition of VSV-S entry, all three concentrations [1]: potent inhibition
pseudovirus cell entry, pseudovirus pre-treatment [5]: decrease the entry efficiency
inhibition of binding of RBD^original to ACE2 [3]: decreased binding; also recorded: strong inhibitory effects
binding of RBD^original to ACE2 at one and two hours post exposure and wash [3]: binding inhibition was retained for two hours
binding inhibition after drug is washed out of the reaction mixture [2]: binding inhibition persists following drug contact
inhibition of binding of ACE2 to SARS-2-S [2]: inhibit binding
potency in inhibiting ACE2 binding compared to NAC [2]: stronger potency

N[C@@H](CCC(=O)N[C@@H](CS)C(=O)NCC(=O)O)C(=O)O [Glutathione]
pKa (thiol group) [4]: 9.2

CC(C)(S)C(=O)N[C@@H](CS)C(=O)O [Bucillamine]
pKa (thiol group) [4]: 8.4
pKa (thiol group) ([4]; dithiol drugs, second thiol): 10.2

CC(C)(S)[C@@H](N)C(=O)O [Penicillamine]
pKa (thiol group) [4]: 10.5

OCC(S)CS (stereo not shown) [2,3-Dimercaprol]
pKa (thiol group) ([4]; dithiol drugs, second thiol): 10.6

NCCCNCCSP(=O)(O)O [Amifostine]
pseudovirus cell entry, pseudovirus pre-treatment [5]: did not inhibit viral cell entry
